Converted amounts (≈) assume the structure as drawn. “And” between values parts separate entries of the source, which are not always exact repeats. Equal values may be shown once. Where a SMILES comes first, the peptide text is derived from it. The star is where a group is joined. Octanoyl = CCCCCCCC(=O)*; X1 = CCCCCCC(CCCC)C(=O)*; X3 = CCCCC(CC)C(=O)*; Butyryl = CCCC(=O)*
Columns and labels:
[1] = tested on: Enterococcus faecium ATCC 700221; format: cell-based; settings: ATCC 700221, 18 h
Protocol: (§1) Tests of the antibacterial activity were carried out as we just described. Briefly, for assays, the following strains of ESKAPE bacteria were chosen: Acinetobacter baumannii ATCC BAA-1605, Enterococcus faecium ATCC 700221, Klebsiella aerogenes ATCC 13048 (formerly Enterobacter aerogenes), Klebsiella pneumoniae ATCC 700603, and Pseudomonas aeruginosa ATCC 9027. Moreover, the reference strains of Staphylococcus aureus were used: S. aureus ATCC 25923, S. aureus ATCC 6538, S. aureus ATCC 33591 (MRSA), S. aureus ATCC 9144, and S. aureus ATCC 12598. Before experiments, all the strains were stored at −80 °C in Roti®-Store cryo vials (Carl Roth GmbH, Karlsruhe, Germany). To evaluate the activity of the compounds, bacteria were transferred into fresh Mueller–Hinton medium (Becton Dickinson, Warszawa, Poland) and incubated for 24 h at 37 °C. In the next step, bacterial inoculums were seeded on Mueller–Hinton agar plates (BioMaxima SA, Lublin, Poland) and incubated again for 24 h. The MIC values were determined using the broth microdilution method according to the Clinical and Laboratory Standards Institute Protocol. The initial inoculums of bacteria (0.5 × 10^5 colony forming units (CFU)/mL) prepared in Mueller–Hinton broth were exposed to the ranging concentrations of peptides (1–512 µg/mL). The experiments were conducted on 96-well microtiter plates, with a final volume of 100 µL. The inoculum densities were checked spectrophotometrically (Multiskan™ GO Microplate Spectrophotometer, Thermo Scientific, Waltham, MA, USA) at 600 nm. The results were read after incubation for 18 h at 37 °C. The MIC values were the lowest concentration at which a visible growth of microorganisms was inhibited. All experiments were conducted in triplicate. Moreover, positive (growth) and negative (sterility) controls were included.

[2] = tested on: Klebsiella aerogenes ATCC 13048; format: cell-based; settings: ATCC 13048, 18 h
Protocol: as §1

[3] = tested on: Klebsiella pneumoniae ATCC 700603; format: cell-based; settings: ATCC 700603, 18 h
Protocol: as §1

[4] = tested on: Pseudomonas aeruginosa ATCC 9027; format: cell-based; settings: ATCC 9027, 18 h
Protocol: as §1

S. aureus ATCC 12598 = format: cell-based, Staphylococcus aureus; settings: ATCC 12598, 18 h
Protocol: as §1

S. aureus ATCC 25923 = format: cell-based, Staphylococcus aureus; settings: ATCC 25923, 18 h
Protocol: as §1

[5] = tested on: S. aureus ATCC 33591 (MRSA); format: cell-based, Staphylococcus aureus; settings: ATCC 33591, 18 h
Protocol: as §1

S. aureus ATCC 6538 = format: cell-based, Staphylococcus aureus; settings: ATCC 6538, 18 h
Protocol: as §1

S. aureus ATCC 9144 = format: cell-based, Staphylococcus aureus; settings: ATCC 9144, 18 h
Protocol: as §1

[6] = 18 h
[7] = tested on: human red blood cells (hRBCs); assay: Hemolysis assay; settings: for MHC5 (minimum hemolytic concentration causing 5% hemolysis of hRBCs): 4% (v/v) erythrocytes in PBS, peptides 1–512 µg/mL, 1 h at 37 °C, hemoglobin at 540 nm
Protocol: To facilitate a comparison of hemolytic activity between the analogs, MHC5 values were determined. MHC5 is the minimum hemolytic concentration of the compounds that caused the 5% hemolysis of hRBCs.
Briefly, the fresh hRBCs with EDTA as anticoagulant were rinsed three times with PBS through centrifugation at 800× g for 10 min and resuspended in PBS. The serial dilution of peptides (1–512 µg/mL) was prepared in PBS on 96-well plates. Then, the stock RBCs solution was added to the plates to reach a final volume of 100 µL with a 4% concentration of erythrocytes (v/v). The control wells for 0 (RBCs in PBS) and 100% (RBCs in 1% Triton-X 100) hemolysis were also prepared. Then, the plates were incubated for 1 h at 37 °C and centrifuged at 800× g for 10 min at 4 °C (Sorvall ST 16R Centrifuge, Thermo Scientific, Waltham, MA, USA). After centrifugation, the supernatant was carefully transferred to new microtiter plates and the release of hemoglobin was measured at 540 nm (Multiskan™ GO Microplate Spectrophotometer, Thermo Scientific, Waltham, MA, USA). The percentage of hemolysis was calculated based on wells with 100% hemolysis.

[8] = fresh batch of blood (footnote a)

Compound: CCCC(=O)NCCCC[C@H](NC(=O)CCC)C(=O)N[C@@H](CCCNC(=N)N)C(=O)N[C@H](C(=O)N[C@H](C(=O)N[C@@H](CCC(N)=O)C(=O)N[C@@H](CCCNC(=N)N)C(=O)N[C@H](C(=O)N[C@@H](CCCCN)C(=O)N[C@@H](CC(=O)O)C(=O)N[C@@H](Cc1ccccc1)C(=O)N[C@@H](CC(C)C)C(=O)N[C@@H](CCCNC(=N)N)C(N)=O)[C@@H](C)CC)C(C)C)[C@@H](C)CC [X, C4^α, C4^ε-KR12-NH2] (Butyryl-K(Butyryl)RIVQRIKDFLR-NH2)
- MIC E. faecium [1]: 32 µg/mL (≈ 18.7 µM)
- MIC K. aerogenes [2]: 256 µg/mL (≈ 150 µM)
- MIC K. pneumoniae [3]: 512 µg/mL (≈ 299 µM)
- MIC P. aeruginosa [4]: >512 µg/mL
- MIC S. aureus 12598 (S. aureus ATCC 12598): 512 µg/mL (≈ 299 µM)
- MIC S. aureus 25923 (S. aureus ATCC 25923): 128 µg/mL (≈ 74.8 µM)
- MIC S. aureus 33591 [5]: 512 µg/mL (≈ 299 µM)
- MIC S. aureus 6538 (S. aureus ATCC 6538): 32 µg/mL (≈ 18.7 µM)
- MIC S. aureus 9144 (S. aureus ATCC 9144): 256 µg/mL (≈ 150 µM)
- MIC A. baumannii [6]: 128 µg/mL (≈ 74.8 µM)
- Hemolytic effect over the studied concentration range ([7]; hRBCs, concentration range up to 512 µg/mL, significant = >5% hemolysis): did not induce any significant hemolysis (>5%)

Compound: CCCCCCCC(=O)N[C@@H](CCCNC(=N)N)C(=O)N[C@@H](CC(C)C)C(=O)N[C@@H](Cc1ccccc1)C(=O)N[C@@H](CC(=O)O)C(=O)N[C@@H](CCCCN)C(=O)N[C@H](C(=O)N[C@@H](CCCNC(=N)N)C(=O)N[C@@H](CCC(N)=O)C(=O)N[C@H](C(=O)N[C@H](C(=O)N[C@@H](CCCNC(=N)N)C(=O)N[C@@H](CCCCN)C(N)=O)[C@@H](C)CC)C(C)C)[C@@H](C)CC [XII, C8^α-retro-KR12-NH2] (Octanoyl-RLFDKIRQVIRK-NH2)
- MIC E. faecium [1]: 8 µg/mL (≈ 4.71 µM)
- MIC K. aerogenes [2]: 256 µg/mL (≈ 151 µM)
- MIC K. pneumoniae [3]: 128 µg/mL (≈ 75.4 µM)
- MIC P. aeruginosa [4]: 64 µg/mL (≈ 37.7 µM)
- MIC S. aureus 12598 (S. aureus ATCC 12598): 32 µg/mL (≈ 18.9 µM)
- MIC S. aureus 25923 (S. aureus ATCC 25923): 32 µg/mL (≈ 18.9 µM)
- MIC S. aureus 33591 [5]: 32 µg/mL (≈ 18.9 µM)
- MIC S. aureus 6538 (S. aureus ATCC 6538): 8 µg/mL (≈ 4.71 µM)
- MIC S. aureus 9144 (S. aureus ATCC 9144): 32 µg/mL (≈ 18.9 µM)
- MIC A. baumannii [6]: 64 µg/mL (≈ 37.7 µM)
- MHC5 (minimum hemolytic concentration causing 5% hemolysis of hRBCs) ([7]; 100% = 1% Triton-X 100, ≥ means less than 5% hemolysis up to 512 µg/mL): ≥512 µg/mL

Compound: CCCCCCC(CCCC)C(=O)N[C@@H](CCCCN)C(=O)N[C@@H](CCCNC(=N)N)C(=O)N[C@H](C(=O)N[C@H](C(=O)N[C@@H](CCC(N)=O)C(=O)N[C@@H](CCCNC(=N)N)C(=O)N[C@H](C(=O)N[C@@H](CCCCN)C(=O)N[C@@H](CC(=O)O)C(=O)N[C@@H](Cc1ccccc1)C(=O)N[C@@H](CC(C)C)C(=O)N[C@@H](CCCNC(=N)N)C(N)=O)[C@@H](C)CC)C(C)C)[C@@H](C)CC (some centres unmarked) [XIII, 2-Buthyloctanoic acid-KR12-NH2] (X1-KRIVQRIKDFLR-NH2)
- MIC E. faecium [1]: 2 µg/mL (≈ 1.14 µM)
- MIC K. aerogenes [2]: 8 µg/mL (≈ 4.56 µM)
- MIC K. pneumoniae [3]: 8 µg/mL (≈ 4.56 µM)
- MIC P. aeruginosa [4]: 32 µg/mL (≈ 18.3 µM)
- MIC S. aureus 12598 (S. aureus ATCC 12598): 4 µg/mL (≈ 2.28 µM)
- MIC S. aureus 25923 (S. aureus ATCC 25923): 8 µg/mL (≈ 4.56 µM)
- MIC S. aureus 33591 [5]: 4 µg/mL (≈ 2.28 µM)
- MIC S. aureus 6538 (S. aureus ATCC 6538): 32 µg/mL (≈ 18.3 µM)
- MIC S. aureus 9144 (S. aureus ATCC 9144): 2 µg/mL (≈ 1.14 µM)
- MIC A. baumannii [6]: 4 µg/mL (≈ 2.28 µM)
- MHC5 (minimum hemolytic concentration causing 5% hemolysis of hRBCs) [7, 8]: 8 µg/mL and 16 ^a µg/mL

Compound: CCCCC(CC)C(=O)N[C@@H](CCCCN)C(=O)N[C@@H](CCCNC(=N)N)C(=O)N[C@H](C(=O)N[C@H](C(=O)N[C@@H](CCC(N)=O)C(=O)N[C@@H](CCCNC(=N)N)C(=O)N[C@H](C(=O)N[C@@H](CCCCN)C(=O)N[C@@H](CC(=O)O)C(=O)N[C@@H](Cc1ccccc1)C(=O)N[C@@H](CC(C)C)C(=O)N[C@@H](CCCNC(=N)N)C(N)=O)[C@@H](C)CC)C(C)C)[C@@H](C)CC (some centres unmarked) [XIV, 2-Ethylhexanoic acid-KR12-NH2] (X3-KRIVQRIKDFLR-NH2)
- MIC E. faecium [1]: 4 µg/mL (≈ 2.36 µM)
- MIC K. aerogenes [2]: 16 µg/mL (≈ 9.43 µM)
- MIC K. pneumoniae [3]: 16 µg/mL (≈ 9.43 µM)
- MIC P. aeruginosa [4]: 128 µg/mL (≈ 75.4 µM)
- MIC S. aureus 12598 (S. aureus ATCC 12598): 32 µg/mL (≈ 18.9 µM)
- MIC S. aureus 25923 (S. aureus ATCC 25923): 64 µg/mL (≈ 37.7 µM)
- MIC S. aureus 33591 [5]: 16 µg/mL (≈ 9.43 µM)
- MIC S. aureus 6538 (S. aureus ATCC 6538): 16 µg/mL (≈ 9.43 µM)
- MIC S. aureus 9144 (S. aureus ATCC 9144): 32 µg/mL (≈ 18.9 µM)
- MIC A. baumannii [6]: 16 µg/mL (≈ 9.43 µM)
- MHC5 (minimum hemolytic concentration causing 5% hemolysis of hRBCs) [7, 8]: 256 ^a µg/mL
